Data published in patent publication US20240189289A1, “INHIBITORS OF EPHB3 SIGNALING” (The Brigham and Women`s Hospital, Inc., priority 2021, published 2024).

What was measured:
[1] = system: PI3K/AKT/mTOR signaling in astrocytes; assay: Western blot of PI3K/AKT/mTOR/NF-κB signaling in primary murine astrocytes; assay type: cell-based, mouse
Description: Mouse primary astrocyte cultures. […] The cell suspension was then cultured at 37° C. in humidified 5% CO2 on poly-L-Lysine (#P4707, Sigma-Aldrich) pre-coated cell culture flasks. Medium was replaced every 3-5 days. The cells reached confluence after 7-10 days. Microglia were separated by shaking the glia culture at 225 rpm at 37° C. for at least 3 h and washing extensively with 1×PBS. Astrocytes were detached by mild trypsinization with Trypsin-EDTA (0.05%) at 37° C. and plated. […] Both cell types were then cultured separately for downstream procedures. […] Finally, microglia and astrocytes of each condition where magnetically separated as before and lysed for downstream gene expression analysis.
SDS-PAGE and Western blot. […] Membranes were blocked in 10% skimmed milk (#M0841, Lab Scientific) in TBS-T (#IBB-180-2L, Boston BioProducts). Primary antibodies were incubated ON at 4° C. and secondary 30 minutes at RT.
HRP-conjugated blots were developed using the KwikQuant imaging system and KwikQuant western blot detection kit (#R1004 Kindle Biosciences).

[2] = system: NOD EAE; assay: Chronic progressive EAE in NOD mice (MOG35-55); assay type: in vivo, mouse
Description: EAE. […] EAE was assessed as follows: 0, no signs of disease; 1, loss of tone in the tail; 2, hind limb paresis; 3, hind limb paralysis; 4, tetraplegia; 5, moribund.
To further validate the potential of EphB3 kinase inhibition for the therapeutic modulation of CNS inflammation and neurodegeneration, a study was performed using non-obese diabetic (NOD) mouse model of chronic progressive EAE induced by immunization with MOG35-55, which recapitulated aspects of secondary progressive MS, including the progressive and irreversible accumulation of neurologic disability.

[3] = biological target: T1, EphB3 (Homo sapiens, UniProt P54753); assay: EphB3 radiometric kinase activity assay (33P ATP filter binding); assay type: biochemical; settings: FIG. 1C
T1 sequence (P54753 34-998): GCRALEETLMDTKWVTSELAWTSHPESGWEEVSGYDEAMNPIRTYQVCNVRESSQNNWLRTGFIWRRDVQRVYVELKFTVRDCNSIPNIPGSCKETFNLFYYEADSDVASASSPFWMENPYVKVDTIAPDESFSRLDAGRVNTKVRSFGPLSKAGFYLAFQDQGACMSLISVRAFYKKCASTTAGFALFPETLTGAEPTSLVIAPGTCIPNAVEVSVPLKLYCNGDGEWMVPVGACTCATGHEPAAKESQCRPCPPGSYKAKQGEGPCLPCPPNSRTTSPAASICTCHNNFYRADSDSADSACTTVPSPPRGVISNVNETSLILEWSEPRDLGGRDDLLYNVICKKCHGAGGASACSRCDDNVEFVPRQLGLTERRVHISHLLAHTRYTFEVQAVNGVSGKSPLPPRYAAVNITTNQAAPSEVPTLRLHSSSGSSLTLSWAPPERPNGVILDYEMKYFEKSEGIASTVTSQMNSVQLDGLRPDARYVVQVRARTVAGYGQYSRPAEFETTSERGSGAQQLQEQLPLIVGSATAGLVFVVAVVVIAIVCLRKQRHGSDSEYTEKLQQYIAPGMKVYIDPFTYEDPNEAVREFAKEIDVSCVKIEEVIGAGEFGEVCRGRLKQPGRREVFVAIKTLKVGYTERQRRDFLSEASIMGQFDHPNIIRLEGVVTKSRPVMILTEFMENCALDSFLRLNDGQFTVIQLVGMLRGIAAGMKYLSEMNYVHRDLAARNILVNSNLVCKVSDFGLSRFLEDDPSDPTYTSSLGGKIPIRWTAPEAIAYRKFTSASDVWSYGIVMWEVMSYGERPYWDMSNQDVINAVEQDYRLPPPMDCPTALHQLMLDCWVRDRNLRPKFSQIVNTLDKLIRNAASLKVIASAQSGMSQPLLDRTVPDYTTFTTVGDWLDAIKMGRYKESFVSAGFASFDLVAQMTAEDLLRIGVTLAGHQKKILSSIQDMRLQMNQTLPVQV
Description: EphB3 radiometric kinase activity assay. To study the EphB3 kinase activity, a radioactive filter binding assay using 33P ATP was performed as described at the […] International Centre for Kinase profiling. […] The mix was harvested onto P81 filter plates and counts were read on a Topcount NXT.

[4] = Mouse liver microsome stability; assay type: in vitro ADME; settings: mouse liver microsomes; read-out: mouse liver microsome stability T1/2
[5] = astrocytes activated 30 minutes with TNFα and IL-1β
[6] = astrocytes stimulated with TNFα and IL-1β

O=C(Nc1ccccc1Cl)c1cnc2ccc(C3CCNCC3)cn12 [A38]
phosphorylation of AKT [1, 5]: suppressed
phosphorylation of p85a, p55a [1, 5]: suppressed
NF-κB activation (p65 phosphorylation and nuclear translocation) [1, 6]: did not suppress NF-κB activation
S6 phosphorylation [1, 6]: suppressed S6 phosphorylation
NOD EAE clinical scores ([2]; administration during the progressive phase): ameliorated NOD EAE, as indicated by the reduced clinical scores
astrocyte and microglial expression of transcriptional modules associated with CNS inflammation and neurodegeneration ([2]; progressive phase of NOD EAE): suppressed
peripheral T-cell response ([2]; progressive phase of NOD EAE): no changes in the peripheral T-cell response were detected
recruitment of pro-inflammatory monocytes to the CNS ([2]; progressive phase of NOD EAE): decreased recruitment
EphB3 tyrosine kinase activity in a cell-free assay [3]: inhibited EphB3 tyrosine kinase activity in a dose-dependent manner
half-life [4]: > 5 h
